What was measured:
Assay type in all cases: in vivo
[1] = tested on: Beta vulgaris ssp. vulgaris; test: Test Example 4: effect on crop by application to foliage (diluvial soil, plastic box); conditions: foliage application, 320 g/ha
Procedure, shortened: (§1)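 Greenhouse plants (25° C. to 30° C., 14 d, diluvial soil) receive a foliar spray of water-diluted emulsifiable formulation at defined g/ha. Grading after 3 weeks uses a six-step herbicidal-ratio scale, with 4 covering 70% to <90% and 1 covering 5% to <20%.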

Glycine max = test: as above; conditions: foliage application, 320 g/ha
Procedure, shortened: as §1

Brassica campestris L. = test: as above; conditions: foliage application, 320 g/ha
Procedure, shortened: as §1

Triticum aestivum = test: as above; conditions: foliage application, 320 g/ha
Procedure, shortened: as §1

[2] = tested on: directly sowed Oryza sativa; test: as above; conditions: foliage application, 320 g/ha
Procedure, shortened: as §1

Zea mays = test: as above; conditions: foliage application, 320 g/ha
Procedure, shortened: as §1

[3] = tested on: Echinochloa crus-galli var. crus-galli; test: Test Example 3: herbicidal effect by application to foliage (Wagner pot, water depth 0.1-0.5 cm); conditions: Nineteenth Table; application to foliage; application herbicide amount 320 g/ha
Procedure, shortened: (§2)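 Visual 0–5 rating of herbicidal ratio, taken 3 weeks after foliar spray of a diluted emulsion formulation at rates expressed as g/ha. Plants had been sown in alluvial soil under 0.1–0.5 cm water and grown 14 days at 25–30 °C under glass before application.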

Leptochloa chinensis = test: as above; conditions: Nineteenth Table; application to foliage; application herbicide amount 320 g/ha
Procedure, shortened: as §2

Cyperus difformis = test: as above; conditions: Nineteenth Table; application to foliage; application herbicide amount 320 g/ha
Procedure, shortened: as §2

| SMILES | f (Beta vulgaris ssp. vulgaris) effect on crop grade [1] | c (Glycine max) effect on crop grade (Glycine max) | g (Brassica campestris L.) effect on crop grade (Brassica campestris L.) | e (Triticum aestivum) effect on crop grade (Triticum aestivum) | d (directly sowed Oryza sativa) effect on crop grade [2] | b (Zea mays) effect on crop grade (Zea mays) | H (herbicidal effect grade) [3] | D (herbicidal effect grade) (Leptochloa chinensis) | E (herbicidal effect grade) (Cyperus difformis) |
| --- | --- | --- | --- | --- | --- | --- | --- | --- | --- |
| Cn1nnnc1NC(=O)c1ccc(C(F)(F)F)n2c(CC[S+](C)[O-])nnc12 (stereo not drawn) [2-058] | 5 (Herbicidal ratio of 90% or more (almost completely withered)) | 3 (Herbicidal ratio of 40% or more and less than 70%) | 5 (Herbicidal ratio of 90% or more (almost completely withered)) | 5 (Herbicidal ratio of 90% or more (almost completely withered)) | 5 (Herbicidal ratio of 90% or more (almost completely withered)) | 5 (Herbicidal ratio of 90% or more (almost completely withered)) | 5 (Herbicidal ratio of 90% or more (almost completely withered)) | 5 (Herbicidal ratio of 90% or more (almost completely withered)) | 5 (Herbicidal ratio of 90% or more (almost completely withered)) |
| Cn1nnnc1NC(=O)c1ccc(C(F)(F)F)n2c(CCS(C)(=O)=O)nnc12 [2-059] | 5 (Herbicidal ratio of 90% or more (almost completely withered)) | 3 (Herbicidal ratio of 40% or more and less than 70%) | 5 (Herbicidal ratio of 90% or more (almost completely withered)) | 4 (Herbicidal ratio of 70% or more and less than 90%) | 5 (Herbicidal ratio of 90% or more (almost completely withered)) | 5 (Herbicidal ratio of 90% or more (almost completely withered)) | 5 (Herbicidal ratio of 90% or more (almost completely withered)) | 5 (Herbicidal ratio of 90% or more (almost completely withered)) | 5 (Herbicidal ratio of 90% or more (almost completely withered)) |
| Cn1nnnc1NC(=O)c1ccc(C(F)(F)F)n2c(-c3ccc(Cl)nc3)nnc12 [2-060] | 5 (Herbicidal ratio of 90% or more (almost completely withered)) | 2 (Herbicidal ratio of 20% or more and less than 40%) | 5 (Herbicidal ratio of 90% or more (almost completely withered)) | 4 (Herbicidal ratio of 70% or more and less than 90%) | 4 (Herbicidal ratio of 70% or more and less than 90%) | 5 (Herbicidal ratio of 90% or more (almost completely withered)) | 5 (Herbicidal ratio of 90% or more (almost completely withered)) | 5 (Herbicidal ratio of 90% or more (almost completely withered)) | 5 (Herbicidal ratio of 90% or more (almost completely withered)) |
| Cn1nnnc1NC(=O)c1ccc(C(F)(F)F)n2c(-c3cccs3)nnc12 [2-061] | 5 (Herbicidal ratio of 90% or more (almost completely withered)) | 3 (Herbicidal ratio of 40% or more and less than 70%) | 4 (Herbicidal ratio of 70% or more and less than 90%) | 3 (Herbicidal ratio of 40% or more and less than 70%) | 4 (Herbicidal ratio of 70% or more and less than 90%) | 5 (Herbicidal ratio of 90% or more (almost completely withered)) | 5 (Herbicidal ratio of 90% or more (almost completely withered)) | 5 (Herbicidal ratio of 90% or more (almost completely withered)) | 5 (Herbicidal ratio of 90% or more (almost completely withered)) |
